Tests used:
[1] = Saturation concentration of MgFDC solution; assay type: physicochemical; settings: solution at 20° C., as anhydrate
Procedure: The HCl was added over a period of about 1 hour and the final pH was 1.5. […] The solid FDCA was filtered off and washed with water. The concentration of 4 wt. % was chosen as it is the saturation concentration at 20° C.

[2] = Solubility of FDCA in water as a function of magnesium chloride concentration; assay type: physicochemical; settings: magnesium chloride solutions in water, stirred 24 h at 21.8° C. and 48.8° C., filtrate analysed by HPLC; values only in FIG. 3
Procedure: Magnesium chloride solutions in water were prepared by dissolving magnesium chloride hexahydrate in water. To each solution (30 g) solid FDCA was added and the mixture was stirred for 24 h at 21.8° C. After stirring a sample was taken and filtered by means of a 0.45 micron filter. The clear filtrate was analysed on FDCA content by means of HPLC. The experiment was repeated at 48.8° C.

| saturation concentration [1] | Compound | solubility of FDCA [2] |
| --- | --- | --- |
| 4 wt. % | O=C([O-])c1ccc(C(=O)[O-])o1.[Mg+2] [MgFDC, magnesium furan-2,5-dicarboxylate] | – |
| – | O=C(O)c1ccc(C(=O)O)o1 [FDCA, furan-2,5-dicarboxylic acid] | depends strongly on temperature and on the concentration of magnesium chloride |

— US10118908B2, “Method for manufacturing furan-2,5-dicarboxylic acid (FDCA) from a solid salt” (PURAC BIOCHEM BV, priority 2015, dated 2018)
